Tested on: transient ischemic attack (TIA) associated with the internal carotid arterial system
Experiment: phase III clinical study of TIA (efficacy in suppressing TIA recurrence, overall safety, utility ratings)
Assay type: in vivo, human (TIA patients)
Conditions: TIA patients; for Efficacy (%): Effective / Efficacy (%): Indeterminable / Efficacy (%): Ineffective / Efficacy (%): Slightly Effective / Efficacy (%): Worsened: ITT
Procedure: Subjects and total number: The subjects of this study were patients who developed one or more TIA attacks associated with the internal carotid arterial system (NIH Diagnostic Criteria, 1990) during the 3-month period before initial administration (171 for efficacy and utility, 175 for safety). Tablets each containing 50 mg or 100 mg of the subject compound obtained in Example 1 were orally administered after breakfast once daily for 18 months. The study was conducted in double blind fashion. As regards conversion to cerebral infarction, temporal changes in TIA onset frequency, TIA symptoms and duration, etc., efficacy was rated at 6 months, 1 year and 18 months of administration, using a 5-grade rating system: The attack frequency at time of rating (during therapeutic period) 1 year and 18 months after initial administration served as an efficacy rating index. For rating at 6 months of administration and rating at less than 1 year due to discontinuation (adverse reactions etc.), rating was in regard to duration of administration period, with reference to the following rating criteria. [table] Overall safety was rated on the basis of adverse reactions, complications, and presence or absence of abnormal changes in clinical laboratory parameters and their degrees, using a 5-grade rating system: On the basis of efficacy and overall safety ratings for suppression of TIA recurrence, utility was rated using a 5-grade rating system: With regard to the above rating items, data were analyzed using ITT (intent-to-treat analysis), with the utility rating in overall assessment at final administration (18 months after administration) as the major item.

[1] = 50 mg/day oral once daily for 18 months, 86 patients
[2] = 50 mg/day oral once daily for 18 months, 85 patients
[3] = 100 mg/day oral once daily for 18 months, 89 patients
[4] = 100 mg/day oral once daily for 18 months, 86 patients

O=C(O)CCCC/C=C(\c1ccccc1)c1cccnc1 [Test compound, (E)-7-(3-pyridyl)-7-phenyl-6-heptenic acid]
Overall Safety (%): Considerably Problematic [1]: 1.2% | Overall Safety (%): Indeterminable [1]: 4.7% | Overall Safety (%): No Problem [1]: 86.0% | Overall Safety (%): Slightly Problematic [1]: 8.1% | Overall Safety (%): Very Problematic [1]: 0% | Efficacy (%): Effective [2]: 64.7% | Efficacy (%): Indeterminable [2]: 10.6% | Efficacy (%): Ineffective [2]: 16.5% | Efficacy (%): Slightly Effective [2]: 2.3% | Efficacy (%): Worsened [2]: 5.9% | Overall Safety (%): Considerably Problematic [3]: 1.1% | Overall Safety (%): Indeterminable [3]: 3.4% | Overall Safety (%): No Problem [3]: 79.8% | Overall Safety (%): Slightly Problematic [3]: 13.5% | Overall Safety (%): Very Problematic [3]: 2.2% | Efficacy (%): Effective [4]: 66.3% | Efficacy (%): Indeterminable [4]: 11.6% | Efficacy (%): Ineffective [4]: 8.1% | Efficacy (%): Slightly Effective [4]: 7.0% | Efficacy (%): Worsened [4]: 7.0%
